Source: ChEMBL document CHEMBL1201862, “PubChem BioAssay data set” (2004)
Active and inactive are the calls of the source.

test system: Streptococcus; test: GAS UMAA2166 growth inhibition – luminescence, BacTiterGlo, counter-screen for streptokinase expression inhibitor project, dose response (AID 1915); format: functional, organism-based; conditions: not given;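 note: potency for reduction of bacterial viability or growth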

SMILES	EC50
Oc1nc2ccc(Cl)cc2c(-c2ccccc2)c1SC(=S)N1CCOCC1	1.3 µM (active)
CCOC(=O)Nc1ccc(OCc2nnc3c4ccccc4c(C)nn23)cc1	0.676 µM (active)

test system: not listed separately; test: luciferase reporter signal suppression in cells – H4 neuroglioma cells, luminescence, dose response (AID 1990); format: functional, cell-based; conditions: not given

SMILES	EC50
CC1(C)Cc2c(sc3c2c(=N)n(Cc2ccco2)c(=O)n3Cc2ccc(Cl)cc2)CO1	14.2 µM (active)
Nc1ccc(Oc2ccccc2-c2ccccc2)cc1	2.08 µM (active)
Cc1cc2c(c(=O)n1C1CC1)C(c1cccc(Cl)c1)C(C#N)=C(N)O2 (stereo not given)	> 120 µM (not active)
O=C1NC[C@@H](Cc2cccc3ccccc23)N(CC2(c3ccccc3)CC2)C1=O	> 120 µM (not active)
COc1ccc(-n2nc(C(=O)NCC(=O)N3CCN(Cc4ccc5c(c4)OCO5)CC3)c3ccccc3c2=O)cc1OC	21.3 µM (active)
CCN(CC)c1nc(Nc2ccc(Cl)cc2)nc(OCC#N)n1	15 µM (active)
O=C(NC1CCCCC1)Oc1cc2oc(=O)sc2cc1Br	> 120 µM (not active)

target: T1, Rac GTPase-activating protein 1 (Homo sapiens, UniProt Q9H0H5); test: blockers of MgcRacGAP-driven Rac1 GTP hydrolysis – biochemical, ADP Hunter fluorescence, primary and confirmatory, confirmation (AID 624330); format: functional; conditions: not given
T1 sequence (Q9H0H5 whole entry): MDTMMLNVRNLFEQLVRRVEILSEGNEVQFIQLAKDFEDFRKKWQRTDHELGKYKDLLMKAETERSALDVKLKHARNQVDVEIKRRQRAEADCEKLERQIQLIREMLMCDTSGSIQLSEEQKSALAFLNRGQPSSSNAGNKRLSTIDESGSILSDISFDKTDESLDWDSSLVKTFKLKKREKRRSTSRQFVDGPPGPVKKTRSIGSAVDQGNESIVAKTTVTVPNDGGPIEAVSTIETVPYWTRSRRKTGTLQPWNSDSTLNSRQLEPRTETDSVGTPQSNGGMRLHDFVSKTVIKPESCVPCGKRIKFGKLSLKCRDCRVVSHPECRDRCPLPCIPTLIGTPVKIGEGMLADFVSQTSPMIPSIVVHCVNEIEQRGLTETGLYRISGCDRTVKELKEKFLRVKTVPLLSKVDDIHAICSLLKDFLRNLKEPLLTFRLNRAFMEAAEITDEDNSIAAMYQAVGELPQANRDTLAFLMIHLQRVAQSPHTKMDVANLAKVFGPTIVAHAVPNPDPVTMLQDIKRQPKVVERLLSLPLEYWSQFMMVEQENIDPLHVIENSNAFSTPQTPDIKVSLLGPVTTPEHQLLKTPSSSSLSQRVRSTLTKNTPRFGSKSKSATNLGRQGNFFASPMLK

SMILES	IC50
Nc1ccc2[nH]c(-c3cccnc3)nc2c1	155 µM (active)
COc1ccc(C(=O)N2CCN(C3CCN(Cc4ccccc4)CC3)CC2)cc1OC	93.1 µM (active)
COc1cc(/C=N/N2CCN(c3ccccc3OC)CC2)ccc1O	36.7 µM (active)
COc1ccc(OC(=O)COc2cccc(C)c2)cc1	52.9 µM (active)
CCN1CCN(CCOc2cccc(Oc3ccccc3)c2)CC1	106 µM (active)
COc1ccc(CN2CCN(Cc3ccccc3F)CC2)cc1OC	85.5 µM (active)

test system: Streptococcus sp. 'group A'; test: Streptococcus pyogenes SK(-)GAS viability under kanamycin – luminescence, BacTiterGlo, confirmation, counter-screen for streptokinase expression inhibitor project, dose response (AID 1900); format: functional, organism-based; conditions: read-out: EC50

SMILES	EC50
Oc1nc2ccc(Cl)cc2c(-c2ccccc2)c1SC(=S)N1CCOCC1	0.827 µM (active)
CCOC(=O)Nc1ccc(OCc2nnc3c4ccccc4c(C)nn23)cc1	< 0.06 µM (active)

target: Cytochrome P450 3A4 (Homo sapiens, UniProt P08684); conditions: not given;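 note: CYP3A4 tested as one member of a cytochrome P450 panel screen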
Sequence (P08684 whole entry): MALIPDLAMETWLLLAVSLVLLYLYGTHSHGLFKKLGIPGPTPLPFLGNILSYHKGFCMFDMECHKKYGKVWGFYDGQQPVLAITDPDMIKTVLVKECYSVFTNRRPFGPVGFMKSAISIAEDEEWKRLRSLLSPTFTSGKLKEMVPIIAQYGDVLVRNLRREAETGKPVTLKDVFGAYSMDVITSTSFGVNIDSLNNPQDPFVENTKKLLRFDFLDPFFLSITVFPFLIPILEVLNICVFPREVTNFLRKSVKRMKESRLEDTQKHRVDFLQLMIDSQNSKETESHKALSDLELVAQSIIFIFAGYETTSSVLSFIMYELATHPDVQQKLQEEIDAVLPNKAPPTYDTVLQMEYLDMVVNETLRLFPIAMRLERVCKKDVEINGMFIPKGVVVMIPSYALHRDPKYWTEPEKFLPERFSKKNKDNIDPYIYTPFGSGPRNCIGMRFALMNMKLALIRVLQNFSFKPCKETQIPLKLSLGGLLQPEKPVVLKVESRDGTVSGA

SMILES	AC50
O=c1c(-c2cccc(F)c2)nc2cncnc2n1Cc1ccccc1	10 µM (inconclusive)
COCCn1c(=O)c(-c2cccc(Cl)c2)nc2cncnc21	15.8 µM (inconclusive)
Cc1ccc(NC(=O)CN2CCC(NC(=O)Cc3ccccc3)CC2)cc1C	14.1 µM (inconclusive)
COCCNc1nc(-c2ccccc2CN(C)C)nc2ccccc12	15.8 µM (inconclusive)
Cn1cnc2c(NCc3ccccc3)nc(NCCO)nc21 [OLOMOUCINE]	15.8 µM (inconclusive)
N#CCCn1c(=O)c(CCc2ccccc2)nc2cnc(Nc3ccccc3)nc21	1 µM (inconclusive)
COc1ccc(Oc2ncc3nc(-c4ccc(Cl)cc4)c(=O)n(C)c3n2)cc1	5.01 µM (inconclusive)
CC(C)CN1CC[C@@]2(CCCN(C(=O)c3ccco3)C2)C1	12.6 µM (inconclusive)
CO/C(O)=C1/C(C)=Nc2ncnn2C1c1cccnc1 (stereo not given)	39.8 µM (inconclusive)
COCC(=O)N1CCC[C@@]2(CCN(C(=O)Nc3cccc(F)c3)C2)C1	25.1 µM (inconclusive)

target: Cytochrome P450 2C19 (Homo sapiens, UniProt P33261); test: Cytochrome panel assay with activity outcomes. Panel member name: p450-cyp2c19 Compounds with AC50 equal or less than 10 uM are considered active; format: functional; conditions: not given
Sequence (P33261 whole entry): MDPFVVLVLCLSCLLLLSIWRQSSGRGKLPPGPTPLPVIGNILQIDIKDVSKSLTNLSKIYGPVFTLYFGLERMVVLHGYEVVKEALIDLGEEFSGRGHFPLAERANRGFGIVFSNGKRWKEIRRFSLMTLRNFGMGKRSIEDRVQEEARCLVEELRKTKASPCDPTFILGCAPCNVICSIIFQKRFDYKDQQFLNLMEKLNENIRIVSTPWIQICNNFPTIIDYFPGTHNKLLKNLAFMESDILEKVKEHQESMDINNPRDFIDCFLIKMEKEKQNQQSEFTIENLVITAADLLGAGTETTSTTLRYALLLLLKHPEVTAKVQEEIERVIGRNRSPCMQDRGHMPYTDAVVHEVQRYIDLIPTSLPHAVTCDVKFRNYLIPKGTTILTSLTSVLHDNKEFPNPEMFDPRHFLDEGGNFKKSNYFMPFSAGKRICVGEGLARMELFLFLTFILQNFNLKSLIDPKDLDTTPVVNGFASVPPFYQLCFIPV

SMILES	AC50
Cn1c(=O)c2c(nc(NCCNc3nc4c(c(=O)n(C)c(=O)n4C)n3C)n2C)n(C)c1=O	inconclusive

same assay, conditions: read-out: AC50

SMILES	AC50
COC(=O)Nc1nc2cc(SC(C)C)ccc2[nH]1	10 µM (inconclusive)
CC(=O)c1c(/N=C/N(C)C)nc(C)nc1-c1ccccc1	25.1 µM (inconclusive)
CCc1c(C)c(C#N)c2nc3ccccc3n2c1N1CCN(c2cc(C)ccn2)CC1	10 µM (inconclusive)

test system: not listed separately; test: alpha-synuclein stem-loop luciferase translation blockers – H4 neuroglioma cells, luminescence, confirmation (AID 1988); format: functional, cell-based; conditions: not given

SMILES	EC50
CC1(C)Cc2c(sc3c2c(=N)n(Cc2ccco2)c(=O)n3Cc2ccc(Cl)cc2)CO1	13.8 µM (active)
Nc1ccc(Oc2ccccc2-c2ccccc2)cc1	5.17 µM (active)
Cc1cc2c(c(=O)n1C1CC1)C(c1cccc(Cl)c1)C(C#N)=C(N)O2 (stereo not given)	> 120 µM (not active)
O=C1NC[C@@H](Cc2cccc3ccccc23)N(CC2(c3ccccc3)CC2)C1=O	> 120 µM (not active)
COc1ccc(-n2nc(C(=O)NCC(=O)N3CCN(Cc4ccc5c(c4)OCO5)CC3)c3ccccc3c2=O)cc1OC	> 120 µM (not active)
CCN(CC)c1nc(Nc2ccc(Cl)cc2)nc(OCC#N)n1	16 µM (active)
O=C(NC1CCCCC1)Oc1cc2oc(=O)sc2cc1Br	> 120 µM (not active)

test system: not listed separately; test: Luminescence Cell-Based Dose Response HTS to Identify Inhibitors of 5'UTR Stem-Loop Driven Prion Protein mRNA Translation in H4 Neuroglioblastoma Cells. [Related pubchem assays: 1827 (Project Summary), 1813 (Primary HTS)]; format: functional; conditions: not given

SMILES	EC50
CC1(C)Cc2c(sc3c2c(=N)n(Cc2ccco2)c(=O)n3Cc2ccc(Cl)cc2)CO1	> 120 µM (not active)
Nc1ccc(Oc2ccccc2-c2ccccc2)cc1	9.75 µM (active)
Cc1cc2c(c(=O)n1C1CC1)C(c1cccc(Cl)c1)C(C#N)=C(N)O2 (stereo not given)	> 120 µM (not active)
O=C1NC[C@@H](Cc2cccc3ccccc23)N(CC2(c3ccccc3)CC2)C1=O	> 120 µM (not active)
COc1ccc(-n2nc(C(=O)NCC(=O)N3CCN(Cc4ccc5c(c4)OCO5)CC3)c3ccccc3c2=O)cc1OC	> 120 µM (not active)
CCN(CC)c1nc(Nc2ccc(Cl)cc2)nc(OCC#N)n1	14.6 µM (active)
O=C(NC1CCCCC1)Oc1cc2oc(=O)sc2cc1Br	> 120 µM (not active)
